In patent publication US20220144812A1, “QUINOLINE DERIVATIVES AND THEIR USE FOR THE TREATMENT OF CANCER” (Epizyme, Inc., priority 2019, published 2022):

Key:
HT1376 bladder cell line = assay: 7-day proliferation assay, HT1376; format: cell-based; details: Homo sapiens, HT-1376, 168 h; HT1376, 7 days, CellTiter-Glo
Description: (§1) This example describes methods and materials for 7-day proliferation assay.
(§2) A total of 22 bladder cell lines were used (see table below). Cell lines were cultured in recommended growth media according to supplier.
(§3) Cells were in culture media at a density optimized for a 7-day culture in a final volume of 150 μL per well in white opaque 96-well plates. Cells were allowed to adhere for several hours (4-6 h) then compounds were added with HPD300 Digital Dispenser and placed into the incubator at 37° C., 5% CO2 for 7 days. After 7 days incubation, 100 μL of CellTiter-Glo® Luminescent Cell Viability Assay (Promega-G7573) reagents were added per well. After 20 minutes incubation luminescence was measured in plate reader. IC50 were calculated from a non-linear logarithmic growth curve.
(§4) IC50 values (nanomolar (nM)) are summarized in the table below, which depicts the inhibitory effect of certain compounds in bladder cell lines.

TCCSUP bladder cell line = assay: 7-day proliferation assay, TCCSUP; format: cell-based; details: Homo sapiens, TCC-SUP, 168 h, 7 days, CellTiter-Glo
Description: as §1, §2, §3, §4

IC50 (HT1376 bladder cell line) [nM] | SMILES | IC50 (TCCSUP bladder cell line) [µM]
3890 | CCn1ncc(CN(C)C(=O)c2cc(-c3ccc(NCCNC)c(C)n3)nc3ccc(Cl)cc23)c1C [Compound 3, 6-chloro-N-[(1-ethyl-5-methyl-1H-pyrazol-4-yl)methyl]-N-methyl-2-(6-methyl-5-{[2-(methylamino)ethyl]amino}pyridin-2-yl)quinoline-4-carboxamide] | 7.6
2070 | CCc1ncc(CN(C)C(=O)c2cc(-c3ccc(NCCN(C)C)c(C)n3)nc3ccc(Cl)cc23)n1C [Compound 577] | 10
2760 | CCc1noc(CN(C)C(=O)c2cc(-c3ccc(NCCNC)c(C)n3)nc3ccc(Cl)cc23)c1C [Compound 537] | 10
1250 | CCn1ncc(CN(C)C(=O)c2cc(-c3ccc(NC4CN(C)C4)c(C)n3)nc3ccc(Cl)cc23)c1C [Compound 480] | 10
